In patent US20030065039A1, “Biologically active 1,3-bis-aromatic-prop-2-en-1-ones, 1,3-bis-aromatic-propan-1-ones, and 1,3-bis-aromatic-prop-2-yn-1-ones” (Statens Serum Institute, priority 1997, published 2003):

Tests used:
Type in all cases: cell-based
[1] = system: IFN-γ; test: IFN-γ producing human mononuclear cells (PMA+inomycin); conditions: for % IFN-γ producing cells / inhibition at 12.5 µg/mL: 1b Experiment 2, PMA+inomycin, 12.5 μg/ml; for % IFN-γ producing cells: DMSO Control 16.4; for inhibition of IFN-γ production: concentration of 12.5 μg/ml; for inhibition at 12.5 µg/mL: Homo sapiens
Protocol: Mitogens: LPS at a final conc. of 1 μg/ml for TNF-α and PMA+inomycin for IFN-γ.
Incubation condition: Cells and mitogen added at the same time and the compound solution added immediately after in polypropylene tubes and incubated at 37° C. in CO2 incubator overnight. The following day the cells and the supernatant were harvested for TNF-α determination.

[2] = system: human embryonic lung (HEL) cells; test: Cytotoxicity in human embryonic lung (HEL) cells; conditions: HEL cell growth reduced by 50%; values given as fractions
[3] = system: IL-1ra; test: Intracellular cytokine staining in stimulated human mononuclear cells; conditions: 25 μg/ml compound
Protocol: (§1) Therefore, experiments were performed to examine the effect of Licochalcone A and SBC-35ma on secretion of TNF-α from the stimulated cells. These experiments included detection of the cytokines in the cell lysate by ELISA and staining of the intracellular cytokines by using monoclonal antibodies against these cytokines and cytokine receptors.
(§2) Table 3. Effect of Licochalcone A and SBC-35ma on the presence of intracellur cytokines in the human peripheral blood mononuclear cells stimulated either with a malarial exoantigen SPAG (diluted 1:12.5) or bacterial LPS (diluted 1:1000). The cells were preincubated with 25 μg/ml of each of the compounds for 2 hours and then incubated in the presence of antigens at 37° C. overnight. The cells were permeabilized and then fixed in paraformaldehyde Cytokine specific monoclonal antibodies were used for the detection of positive cells for each cytokine. Data are presented as percentages of positive cells for each cytokine.

[4] = system: IL-1α; test: as above; conditions: 25 μg/ml compound, 2 hours preincubation
Protocol: as §1, §2

[5] = system: IL-1β; test: as above; conditions: 25 μg/ml compound
Protocol: as §1, §2

[6] = system: IL-2; test: as above; conditions: 25 μg/ml compound
Protocol: as §1, §2

[7] = system: IL-4; test: as above; conditions: 25 μg/ml compound
Protocol: as §1, §2

[8] = system: IL-6; test: as above; conditions: 25 μg/ml compound
Protocol: as §1, §2

[9] = system: TNF-α; test: as above; conditions: 25 μg/ml compound
Protocol: as §1, §2

Structure (SMILES) | % IFN-γ producing cells [1] | inhibition of IFN-γ production ([1]; 1b Experiment 3) | inhibition of IFN-γ production ([1]; 1b Experiment 4) | inhibition at 12.5 µg/mL [1] | Cytotoxicity CC50 [2] | percentages of positive cells for IL-1ra ([3]; LPS 1:1000, LPS alone 5.1) | percentages of positive cells for IL-1ra ([3]; SPAG 1:12.5, SPAG alone 6.6) | percentages of positive cells for IL-1α ([4]; LPS 1:1000, LPS alone 13) | percentages of positive cells for IL-1α ([4]; SPAG 1:12.5, SPAG alone 11) | percentages of positive cells for IL-1β ([5]; LPS 1:1000, LPS alone 9.1) | percentages of positive cells for IL-1β ([5]; SPAG 1:12.5, SPAG alone 13) | percentages of positive cells for IL-2 ([6]; LPS 1:1000, LPS alone 2.0) | percentages of positive cells for IL-2 ([6]; SPAG 1:12.5, SPAG alone 3.1) | percentages of positive cells for IL-4 ([7]; LPS 1:1000, LPS alone 0) | percentages of positive cells for IL-4 ([7]; SPAG 1:12.5, SPAG alone 0) | percentages of positive cells for IL-6 ([8]; LPS 1:1000, LPS alone 4.3) | percentages of positive cells for IL-6 ([8]; SPAG 1:12.5, SPAG alone 5.6) | percentages of positive cells for TNF-α ([9]; LPS 1:1000, LPS alone 0.30) | percentages of positive cells for TNF-α ([9]; SPAG 1:12.5, SPAG alone 0.96)
COc1cc(/C=C/C(=O)c2ccccc2F)cc(OC)c1 [PH135, 2′-fluoro-3,5-dimethoxychalcone] | 14.2% | no inhibition | no inhibition | 14% | – | – | – | – | – | – | – | – | – | – | – | – | – | – | –
COc1cc(/C=C/C(=O)c2ccc(C3CCCCC3)cc2)cc(OC)c1 [PH104, 3,5-dimethoxy-4′-cyclohexylchalcone] | 17.0% | no inhibition | no inhibition | 0% | – | – | – | – | – | – | – | – | – | – | – | – | – | – | –
C=CC(C)(C)c1cc(/C=C/C(=O)c2ccc(O)cc2)c(OC)cc1O [Licochalcone A] | – | – | – | – | 1/600 | 7.6% | 2.9% | 15% | 9.1% | 12% | 13% | 3.6% | 5.2% | 0% | 0.69% | 6.7% | 6.2% | 0.70% | 1.0%
C=CCOc1ccc(C(=O)/C=C/c2cc(OC)cc(OC)c2)cc1 [SBC-35ma, 3,5-dimethoxy-4′-allyloxychalcone] | – | – | – | – | <1/60 | 0.78% | 0.14% | 0% | 0% | 0% | 0% | 0% | 0% | 0% | 0% | 0% | 0% | 0% | 0%
